# Test results published in patent publication US4771044A, “Tetraoxo compounds and pharmaceutical compositions” (Kali-Chemie Pharma GmbH, priority 1985, dated 1988).
# Read-outs that look alike come from different tables or passages of the source.
# Columns and labels:
# [1] = system: male NMRI-mice; assay: Inducement of head-shaking syndrome in mice by interaction with subthreshold dose of 5-HTP, antidepressive properties; assay type: in vivo; conditions: mouse, p.o.; pargyline 25 mg/kg i.p. pretreatment, 50 mg/kg 5-HTP i.p.; 60 min
# Description: 3. Evaluation of antidepressive properties.
# This effect is typical of antidepressives. For this a modified method according to Corne et al (see Br.J.Pharmacol. 20, pp 106-120) is used to determine the ability of the compounds to induce a head-shaking syndrome in mice in interaction with a subthreshold dose of 5-HTP.
# Male NMRI-mice having a body weight of 20-30 g are used. 60 min. prior to administration of the test compounds the animals are given an i.p. injection of 25 mg/kg of the MAO-inhibitor pargyline dissolved in a volume of 10 ml/kg of 2% tylose solution. Groups of 20 animals are used for each dose of the test compounds. The test compounds are administered per os in a volume of 10 ml/kg of 2% tylose solution. After 30 min. 50 mg/kg 5-HTP in a volume of 10 ml/kg of 2% tylose solution are injected i.p. and each animal is placed in a case individually. A group of control animals receives only the pargyline injection, the 5-HTP injection and 2% tylose solution p.o.
# 60 min. after administration of the test compounds (=30 min. after 5-HTP injection) the animals are observed for 120 sec. in order to check, whether or not the head-shaking-syndrome occurs.
# The ED50 is defined as the dose at which the number of animals showing a head-shake-syndrome is increased by 50% as compared with the control group.
# [2] = system: male mice; conditions: mouse, in vivo, 1440 min
# Description: 1. Determination of Minimum Toxic Dose
# Male mice weighing 20 to 25 g are administered per os and i.p. maximum doses of 300 mg/kg of the test substances. The animals are carefully observed for three hours for toxic symptoms. During a period of 24 hours following the administration all symptoms and deaths are recorded. Side reactions are likewise observed and recorded. When death or strong toxic symptoms are observed, further mice are administered increasingly smaller doses. The lowest dose which produces death or strong toxic symptoms is given as the minimum toxic dose.
# [3] = system: female Wistar rats; assay: CAR-test (conditioned avoidance response) in rats, antipsychotic properties; assay type: in vivo; conditions: po, 1 h, rat, per os, one hour prior to testing
# Description: 2. Evaluation of antipsychotic properties in the CAR-test procedure in rats.
# The CAR test is performed in a modification of the experimental set up described by Capaldi et al (see R. D. Myers (ed): Methods in Psychobiology, Academic Press, New York, pp. 71-74). Fully automated one-way shuttle boxes are used, which are divided into 2 compartments by a wall with a hole. The floor of the box is a grid of stainless steel through which electric stimuli can be delivered. The ceiling of the box is provided with a lamp and a loudspeaker giving a buzzertone. In order to avoid the electric stimulus in the first starting compartment the animals can cross over into the safe second compartment.
# During the test procedure the animals are placed into the starting compartment and at the same time the light and the loudspeaker are switched on as a warning signal (=conditioned stimulus). If at this warning signal already the animals cross over into the safe compartment, this is considered a CAR and is automatically recorded. If the animals don't cross over into the safe compartment within 5 sec. an electric shock is delivered additionally through the floor grid (=unconditioned stimulus) for a period of up to 15 sec. If at the presentation of the electric shock the animals cross over into the safe compartment, this is considered an unconditioned escape response (=UER). As soon as the animals have crossed over into the safe compartment the stimuli are switched off automatically.
# For the test female Wistar rats having a body weight of 140-210 g are used. They are trained in a 20 trial session on the day before and only such animals which show CAR exclusively are used for the drug experiments.
# Groups of 4 animals are used for each dose of the test compounds, the animals are placed into the test situation 15 times each, and the average value of the last 10 trials is taken into account.
# The test compounds are administered per os in a volume of 10 ml/kg of 2% tylose solution one hour prior to testing. To a control group tylose solution only is administered. The dose which reduces CAR by 50% and thus leads to a 50% avoidance block is determined (=ED50 AB). Furthermore the dosis which reduces UER by 50% and thus leads to a 50% escape block is determined (=ED50 EB).
# [4] = system: female Wistar rats; assay: Behavioral changes of rats in punishment conflict situation (Skinner box), anxiolytic properties; assay type: in vivo, rat; conditions: po, 1 h
# Description: 4. Evaluation of anxiolytic properties.
# For evaluating the anxiolytic properties of the compounds a modified method according to Davidson et al (see The Benzodiazepines, Raven Press New York 1973 pp 327-345) is used, whereby the ability of the compounds to change the behavior of rats in a punishment conflict situation is examined.
# In order to create the conflict situation the following experimental set up and procedure are used:
# The tests are performed in Skinner boxes which are provided with an electrifyable grid-floor, a lever which has to be pressed by the rat, an automatic feeder and 2 different light sources. Female Wistar rats having a body weight of 180-300 g are used. Prior to testing the animals are trained to obtain food by pressing the lever, whereby 2 phases of different conditions alternate. The two phases are distinguished by different lightening. During one phase a food reward is given at a fixed ratio after each 10th lever press (=FR 10), yet simultaneous by with the food pellet an electric food shock punishment is delivered. During the other phase food reward is obtained without any electric punishment, yet lever pressing is rewarded with a food pellet far less frequently and at varying time intervals only (average interval 30 sec=VI30). During each […]. trial session […] alternate with 6 FP10 phases (120 sec. each).
# For testing the compounds each animal is subjected to the 47 min. test procedure once a day on 4 consecutive days always at the same time. On days 1, 2 and 3 the animals are given per os 10 ml/kg of 2% tylose soluton 60 min. prior to test begin. On day 4 they are given a dose of the test compound in the tylose solution. For each animal the number of lever press responses in the punished FR10 phases and in the unpunished VI30 phases are recorded seperately for each day. For each animal the mean values from the results of the first three days are taken as control values. The results from the 4th day are compared with these control values. The lowest doses which produce significant changes in the number of lever presses are determined for the unpunished phase and for the punished phase as the minimum effective doses (=MEDup and MEpp). Increased activity during the punished phase is due to anxiolytic effects of the test compound. Reduced activity during the unpunished phase is an indication of sedative effects of the compound.
# [5] = read-out: ED50 AB (dose leading to 50% avoidance block)
# [6] = read-out: ED50 EB (dose leading to 50% escape block)
# [7] = rat, p.o., punished FR10 phase, 60 min. prior to test, read-out: MEDPP (minimum effective dose, punished phase)
# [8] = rat, p.o., unpunished VI30 phase, 60 min. prior to test, read-out: MEDUP (minimum effective dose, unpunished phase)
structure (smiles),measurement,setting,value
CCCCCCN1C(=O)C2C(=O)N(CCCCCN3CCN(c4ccccc4OC)CC3)C(=O)C(C1=O)C2(C)C [Compound 3142],"ED50, inducement of head-shaking-syndrome by interaction with 5-HTP",[1],74 µmol/kg
CCCCN1C(=O)C2C(=O)N(CCCCN3CCN(c4ccccc4OCC)CC3)C(=O)C(C1=O)C2(C)C [Compound 3110],Minimum Toxic Dose,[2]; ip,> 300 mg/kg
same,Minimum Toxic Dose,[2]; po,> 300 mg/kg
same,ED50,[3]; [5],50 µmol/kg
same,ED50,[3]; [6],200 µmol/kg
same,minimal effective dose,[4]; [7],6.8 µmol/kg
same,minimal effective dose,[4]; [8],> 215 µmol/kg
CCCCN1C(=O)C2C(=O)N(CCCCN3CCN(c4ccc(F)cc4)CC3)C(=O)C(C1=O)C2(C)C [Compound 3135],Minimum Toxic Dose,[2]; ip,> 300 mg/kg
same,Minimum Toxic Dose,[2]; po,> 300 mg/kg
same,"ED50, inducement of head-shaking-syndrome by interaction with 5-HTP",[1],72 µmol/kg
"CN1C(=O)CN=C(c2ccccc2)c2cc(Cl)ccc21 [Diazepam, reference compound]",minimal effective dose,"[4]; Rattus norvegicus, read-out: MEDPP (minimum effective dose, punished phase)",31.6 µmol/kg
same,minimal effective dose,"[4]; Rattus norvegicus, read-out: MEDUP (minimum effective dose, unpunished phase)",46.4 µmol/kg
CCCCCCN1C(=O)C2C(=O)N(CCCCCN3CCN(c4cccc(C)c4)CC3)C(=O)C(C1=O)C2(C)C [Compound 3143],Minimum Toxic Dose,[2]; ip,> 300 mg/kg
same,Minimum Toxic Dose,[2]; po,> 300 mg/kg
same,"ED50, inducement of head-shaking-syndrome by interaction with 5-HTP",[1],130 µmol/kg
CCCCN1C(=O)C2C(=O)N(CCCCN3CCN(c4ccccc4OC)CC3)C(=O)C(C1=O)C2(C)C [Compound 3107],Minimum Toxic Dose,[2]; ip,200 mg/kg
same,Minimum Toxic Dose,[2]; po,> 300 mg/kg
same,ED50,[3]; [5],27 µmol/kg
same,ED50,[3]; [6],70 µmol/kg
same,minimal effective dose,[4]; [7],14.7 µmol/kg
same,minimal effective dose,[4]; [8],147 µmol/kg
CCCCN1C(=O)C2C(=O)N(CCCCN3CCN(c4ncccn4)CC3)C(=O)C(C1=O)C2(C)C [Compound 3304],minimal effective dose,[4]; [7],21.5 µmol/kg
same,minimal effective dose,[4]; [8],> 215 µmol/kg
